Measurements: patent US20200046860A1, “Systems and Methods for the Detection of Hydroxychloroquine-Mediated Cardiotoxicity” (Mayo Foundation for Medical Education and Research, priority 2018, published 2020)

Legend:
[1] = tested on: cardiac myocytes; test: Endomyocardial biopsy of patient on hydroxychloroquine; format: in vivo, human; conditions: same patient
Procedure: An endomyocardial biopsy was performed on the same subject. […] Amyloid was not present on special stains, including sulfated Alcian blue stain and Congo red stains (C of FIG. 4 and D of FIG. 4, respectively, ×100 original magnification).

[2] = tested on: heart
Description: Planar scintigraphy (D of FIG. 3) of ^99mTc-PYP uptake allows count comparison between the heart (right) with the contralateral chest (left) on 3-hour uptake anterior planar imaging.

## CCN(CCO)CCCC(C)Nc1ccnc2cc(Cl)ccc12 (stereo not drawn) [hydroxychloroquine]
[1]; light microscopy
  hematoxylin and eosin-stained section finding: marked sarcoplasmic vacuolization of cardiac myocytes
[1]
  toluidine blue-stained thick section finding: dense sarcoplasmic inclusions
[1]; in keeping with hydroxychloroquine-mediated cardiotoxicity
  electron microscopy finding: presence of myelinoid and curvilinear bodies
[1]; sulfated Alcian blue and Congo red stains
  amyloid on special stains: not present
[2]; human, in vivo
  left ventricular wall finding on echocardiogram: concentric left ventricular wall thickening
[2]; patient on hydroxychloroquine for 15 years, abnormal, most preserved at the apex
  global averaged longitudinal peak systolic strain: −10%
